The results in this text go back to patent US8551914B2, “Pesticidal compositions” (Dow AgroSciences, LLC., priority 2011, dated 2013).

Holding throughout (format): in vivo
The test system of series [1] is CEW (Helicoverpa zea). Description: Bioassay on corn earworm (CEW), 128-well diet tray assay. Particulars: 50 μg/cm2 on artificial diet, second instar larvae, five to seven days, 25° C.; for mortality at 50 µg/cm2: Helicoverpa zea, 168 h. The protocol:
(§1) Certain molecules disclosed in this document were tested against BAW and CEW using procedures described in the following examples. In the reporting of the results, the “BAW & CEW Rating Table” was used (See Table Section).
Bioassays on CEW were conducted using a 128-well diet tray assay. one to five second instar CEW larvae were placed in each well (3 mL) of the diet tray that had been previously filled with 1 mL of artificial diet to which 50 μg/cm^2 of the test compound (dissolved in 50 μL of 90:10 acetone-water mixture) had been applied (to each of eight wells) and then allowed to dry. Trays were covered with a clear self-adhesive cover, and held at 25° C., 14:10 light-dark for five to seven days. Percent mortality was recorded for the larvae in each well; activity in the eight wells was then averaged. The results are indicated in the table entitled “Table 1” (See Table Section).

Series [2] relates to BAW (Spodoptera exigua). Put plainly: Bioassay on beet armyworm (BAW), 128-well diet tray assay. Particulars: 50 μg/cm2 on artificial diet, second instar larvae, five to seven days, 25° C.; for mortality at 50 µg/cm2: Spodoptera exigua, 168 h. The protocol: as §1
Bioassays on BAW were conducted using a 128-well diet tray assay. one to five second instar BAW larvae were placed in each well (3 mL) of the diet tray that had been previously filled with 1 mL of artificial diet to which 50 μg/cm^2 of the test compound (dissolved in 50 μL of 90:10 acetone-water mixture) had been applied (to each of eight wells) and then allowed to dry. Trays were covered with a clear self-adhesive cover, and held at 25° C., 14:10 light-dark for five to seven days. Percent mortality was recorded for the larvae in each well; activity in the eight wells was then averaged. The results are indicated in the table entitled “Table 1” (See Table Section).

In series [3] the test system is GPA (Myzus persicae). Description: Bioassay on green peach aphid (GPA), foliar spray on cabbage seedlings. Particulars: 200 ppm spray on cabbage seedlings, three days, Abbott corrected % control; for mortality at 200 ppm: Myzus persicae, foliar, 72 h. Here is the method: Certain molecules disclosed in this document were tested against GPA using procedures described in the following example. In the reporting of the results, the “GPA Rating Table” was used (See Table Section).
Cabbage seedlings grown in 3-inch pots, with 2-3 small (3-5 cm) true leaves, were used as test substrate. The seedlings were infested with 20-50 GPA (wingless adult and nymph stages) one day prior to chemical application. Four pots with individual seedlings were used for each treatment. Test compounds (2 mg) were dissolved in 2 mL of acetone/methanol (1:1) solvent, forming stock solutions of 1000 ppm test compound. The stock solutions were diluted 5× with 0.025% Tween 20 in H2O to obtain the solution at 200 ppm test compound. A hand-held aspirator-type sprayer was used for spraying a solution to both sides of […] leaves until runoff. Reference plants (solvent check) were sprayed with the diluent only containing 20% by volume of acetone/methanol (1:1) solvent. Treated plants were held in a holding room for three days at approximately 25° C. and ambient relative humidity (RH) prior to grading. Evaluation was conducted by counting the number of live aphids per plant under a microscope. Percent Control was measured by using Abbott's correction formula (W. S. Abbott, “A Method of Computing the Effectiveness of an Insecticide” J. Econ. Entomol. 18 (1925), pp. 265-26′7) as follows. Corrected % Control=100*(X−Y)/X • where • X=No. of live aphids on solvent check plants and • Y=No. of live aphids on treated plants

The structures appear in SMILES notation. Where a name gives a salt, the structure may show the parent alone.

For `CCO[C@@H]1[C@@H](OC)[C@H](C)O[C@@H](ONCc2ccc(-c3ncn(-c4ccc(OC(F)(F)C(F)(F)F)cc4)n3)cc2)[C@@H]1OC` [Compound 1, O-((2S,3R,4R,5S,6S)-4-ethoxy-3,5-dimethoxy-6-methyl-tetrahydropyran-2-yl)-N-{4-[1-(4-pentafluoroethyloxy-phenyl)-1H-[1,2,4]triazol-3-yl]-benzyl}-hydroxylamine], the “% Mortality CEW 50 μg/cm2” value in series [1] was “A (50-100)”. Moreover, the “% Mortality BAW 50 μg/cm2” value in series [2] is listed as “A (50-100)”. Moreover, the “% Mortality GPA 200 ppm” value in series [3] was “B (More than 0-Less than 80)”.
`CO[C@@H]1[C@@H](O)[C@H](C)O[C@@H](ONCc2ccc(-c3ncn(-c4ccc(OC(F)(F)C(F)(F)F)cc4)n3)cc2)[C@@H]1OC` [Compound 2, (2S,3S,4R,5R,6S)-4,5-Dimethoxy-2-methyl-6-(N-{4-[1-(4-pentafluoroethyloxy-phenyl)-1H-[1,2,4]triazo1-3-yl]-benzyl}aminooxy)-tetrahydroyran-3-ol]: the mortality at 50 µg/cm2 in series [1] and in series [2] was 50 to 100% each time. Further, the mortality (usually the share of the test organisms that died) at 200 ppm in series [3] fell in the range of 0 to 80%.
Regarding `CO[C@@H]1[C@@H](OC)[C@H](C)O[C@@H](ONCc2ccc(-c3ncn(-c4ccc(OC(F)(F)F)cc4)n3)cc2)[C@@H]1OC` [Compound 3, N-{4-[1-(4-trifluoromethoxyphenyl)-1H-[1,2,4]triazol-3-yl]-benzyl}-O-((2S,3R,4R,5S,6S)-3,4,5-trimethoxy-6-methyl-tetrahydro-pyran-2-yl)-hydroxylamine], in series [1], the “% Mortality CEW 50 μg/cm2” value is reported as “A (50-100)”. Moreover, the “% Mortality BAW 50 μg/cm2” value in series [2] is listed as “A (50-100)”. This compound gave a mortality at 200 ppm in series [3] of 0 to 80%.
In the case of `CO[C@@H]1[C@@H](OC)[C@H](C)O[C@@H](ONCc2ccc(-c3ncn(-c4ccc(OC(F)(F)F)cc4)n3)cc2)[C@@H]1OC.Cl` [Compound 4, N-{4-[1-(4-trifluoromethoxyphenyl)-1H-[1,2,4]triazol-3-yl]-benzyl}-O-((2S,3R,4R,5S,6S)-3,4,5-trimethoxy-6-methyl-tetrahydropyran-2-yl)-hydroxylamine hydrochloride], the “% Mortality CEW 50 μg/cm2” value in series [1] is “B (More than 0-Less than 50)”. In series [2], the mortality at 50 µg/cm2 is 50 to 100%.
As for `CCO[C@@H]1[C@@H](OC)[C@H](C)O[C@@H](ONCc2ccc(-c3ncn(-c4ccc(OC(F)(F)C(F)(F)F)cc4)n3)cc2)[C@@H]1OC` [Compound 5, O-((2S,3R,4R,5S,6S)-4-Ethoxy-3,5-dimethoxy-6-methyl-tetrahydropyran-2-yl)-N-{4-[1-(4-pentafluoroethyloxy-phenyl)-1H-[1,2,4]triazol-3-yl]-benzyl}-hydroxylamine hydrochloride], the mortality at 50 µg/cm2 in series [1] and in series [2] was 50 to 100% in each case. Also, the mortality at 200 ppm in series [3] came out at 0%.
On to `CO[C@@H]1[C@@H](OC)[C@H](C)O[C@@H](ON(Cc2ccc(-c3ncn(-c4ccc(OC(F)(F)F)cc4)n3)cc2)C(C)=O)[C@@H]1OC` [Compound 6, N-{4-[1-(4-trifluoromethoxyphenyl)-1H-[1,2,4]triazol-3-yl]-benzyl}-N-((2S,3R,4R,5S,6S)-3,4,5-trimethoxy-6-methyl-tetrahydropyran-2-yloxy)-acetamide], for which the mortality at 50 µg/cm2 in series [1] and in series [2] was 50 to 100% in each case. The compound further came in with a mortality at 200 ppm in series [3] of 0 to 80%.
`CO[C@@H]1[C@@H](OC)[C@H](C)O[C@@H](ON(C)Cc2ccc(-c3ncn(-c4ccc(OC(F)(F)F)cc4)n3)cc2)[C@@H]1OC` [Compound 7, N-Methyl-N-{4-[1-(4-trifluoromethoxyphenyl)-1H-[1,2,4]triazol-3-yl]-benzyl}-O-((2S,3R,4R,5S6S)-3,4,5-trimethoxy-6-methyl-tetrahydro-pyran-2-yl)-hydroxylamine]: the mortality at 50 µg/cm2 in series [1] and in series [2] was 50 to 100% in each case. The mortality at 200 ppm in series [3] amounted to 0%.
Take `CO[C@@H]1[C@@H](OC)[C@H](C)O[C@@H](ON(Cc2ccc(-c3ncn(-c4ccc(OC(F)(F)F)cc4)n3)cc2)C(=O)CCC(=O)O)[C@@H]1OC` [Compound 8, N-{4-[1-(4-trifluoromethoxyphenyl)-1H-[1,2,4]triazol-3-yl]-benzyl}-N-((2S,3R,4R,5S,6S)-3,4,5-trimethoxy-6-methyl-tetrahydropyran-2-yloxy)-succinamic acid]: the mortality at 50 µg/cm2 in series [1] and in series [2] was 0% in each case. In series [3], this compound displayed a mortality at 200 ppm of 0%.
In the case of `COC(=O)CC(=O)N(Cc1ccc(-c2ncn(-c3ccc(OC(F)(F)F)cc3)n2)cc1)O[C@@H]1O[C@@H](C)[C@H](OC)[C@@H](OC)[C@H]1OC` [Compound 9, N-{4-[1-(4-trifluoromethoxyphenyl)-1H-[1,2,4]triazol-3-yl]-benzyl}-N-((2S,3R,4R,5S,6S)-3,4,5-trimethoxy-6-methyl-tetrahydropyran-2-yloxy)-malonamic acid methyl ester], the mortality at 50 µg/cm2 in series [1] and in series [2] was 50 to 100% throughout. In series [3], this compound yielded a mortality at 200 ppm of 0 to 80%.
